Results reported in patent US20260199287A1, “LIPO-HYDROXAMIC ACID DERIVATIVE AND PHARMACEUTICAL USE THEREOF” (MediciBIO Co., Ltd, priority 2022, published 2026).
Read-outs that look alike come from different tables or passages of the source.

Legend:
[1] = Stability as an eye drop composition (HPLC peak area); type: physicochemical; settings: for Peak area(%) Sample 1 / Peak area(%) Total amount of decomposed products: HPLC
Experimental: In order to identify the stability of the lipo-hydroxamic acid derivative prepared above as an eye drop composition, the ratio (peak area, % o) of the active ingredient and decomposed product of the sample (Sample 1) was determined via HPLC analysis.

[2] = type: in vitro ADME
[3] = tested on: human corneal endothelial cells; test: Anti-apoptotic effect, CellTiter-Glo 2.0 cell viability assay in corneal dystrophy-like environment; type: cell-based; settings: compared to control group (corneal dystrophy-mimicking); 24 hours treatment
Experimental: PriNeu I medium, which is a serum-free medium, was supplemented with 10% fetal bovine serum, human epidermal growth factor (EGF), human vascular endothelial growth factor (VEGF), human insulin, human transferrin, sodium selenite, hydrocortisone, heparin, R estradiol, L-glutamine, penicillin/streptomycin, and G418 (geneticin). Human corneal endothelial cells (purchased from Creative Biolabs (NY, USA)) were seeded onto culture dishes coated with FNC Coating Mix (Athena Environmental Science, MD, USA) and incubated at 37° C. in a humidified 5% CO2 atmosphere. […]
In order to identify the effect of the lipo-hydroxamic acid derivative prepared above on apoptosis caused by corneal dystrophy in corneal endothelial cells, human corneal endothelial cells were cultured in the same manner as in Example 3-1. […] Afterwards, the samples (Samples 1, 4, and 5) were pretreated for 24 hours, and cell viability was measured via the CellTiter-Glo 2.0 cell viability assay (Promega). The number of viable cells was determined based on intracellular ATP levels, and the luminescence intensity was measured using a GloMax Discover microplate reader (Promega).

Smad2/3 = test: Western blot of Smad2/3 phosphorylation; type: cell-based, human; settings: compared to the control group (corneal dystrophy-mimicking)
N-cadherin = test: Real-time PCR, N-cadherin mRNA; type: cell-based, human; settings: corneal dystrophy-like environment
Experimental: (§1) To identify the antioxidant mechanism of the lipo-hydroxamic acid derivative prepared above, real-time PCR was performed to detect the mRNA expression levels of the antioxidant enzymes downstream of Nrf2. First, human corneal endothelial cells were cultured at 3×10^5 cells per well in a 6-well plate coated with FNC Coating Mix for 18 to 24 hours, and the samples were treated. Four hours after the sample treatment, the corneal dystrophy-like environment was induced using the same method as described in Example 3-2. Twenty-four hours after inducing the corneal dystrophy-like environment, RNA was isolated from the cells using an RNA extraction kit (Bioneer, Daejeon), and cDNA was synthesized from […] of RNA using RT PreMix (Bioneer). Subsequently, real-time PCR was performed using GoTaq mater mix (Promega) containing SYBR green solution at 95° C. for 2 minutes, followed by 35 cycles at 95° C. for 15 seconds and at 60° C. for 1 minute.
(§2) To identify the effect of the lipo-hydroxamic acid derivative prepared above on the expression of fibrosis- and cellular degeneration-related factors in corneal endothelial cells, real-time PCR was performed to detect mRNA expression levels of the fibrosis marker N-cadherin, and the cellular degeneration markers collagen I and fibronectin. The real-time PCR was performed in the same manner as in Example 5-2 above.

fibronectin = test: Real-time PCR, fibronectin mRNA; type: cell-based, human; settings: corneal dystrophy-like environment
Experimental: as §1, §2

O=C(CCCCC1CCSS1)NOCCO (centres unmarked) [Sample 1, 5-[1,2]dithiolan-3-yl-pentanoic acid (2-hydroxy-ethoxy)-amide]
Peak area(%) Sample 1 ([1]; Day 1): 99.36% | Peak area(%) Total amount of decomposed products ([1]; Day 1): 0.62% | Peak area(%) Sample 1 ([1]; Day 2): 99.20% | Peak area(%) Total amount of decomposed products ([1]; Day 2): 0.80% | Peak area(%) Sample 1 ([1]; Day 3): 99.36% | Peak area(%) Total amount of decomposed products ([1]; Day 3): 0.64% | Peak area(%) Sample 1 ([1]; Early stage): 99.72% | Peak area(%) Total amount of decomposed products ([1]; Early stage): 0.28% | stability in a liquid phase ([1]; up to day 3): good stability | Peak area (%) ([2]; 0.5 h): 97.37% | Peak area (%) ([2]; 2 h): 92.65% | Peak area (%) ([2]; 18 h): 17.42% | Peak area (%) ([2]; 24 h): 6.00% | concentration from which a significant increase in cell viability was observed [3]: ≥ 30 µM | phosphorylation of Smad2/3 protein (Smad2/3): significantly decreased | mRNA expression of N-cadherin (N-cadherin): significantly decreased in a concentration-dependent manner | mRNA expression of fibronectin (fibronectin): significantly decreased in a concentration-dependent manner
